The record followed here is patent publication US9670242B2, “Tetracyclic anthraquinone derivatives” (Tianjin Hemay Bio-Tech Co., Ltd, priority 2012, dated 2017).

Data set [1] concerns SK-Br-3 cells. Briefly: SK-Br-3 cell growth inhibition test (SRB assay). In kind it is cell-based, human. To be noted: 72 h. On the procedure:
SK-Br-3 Cell Growth Inhibition Test (SRB Assay)
(§1) II. Reagents and Consumable Materials
Culture medium: 85% DMEM+15% FBS; pancreatin (0.25% (w/v) solution was formulated with PBS, 0.53 mM of EDTA was added in the formulation); PBS; 96-well culture plate.
(§2) 1. A plate (10 cm) of cells in logarithmic growth phase that were normally cultured was collected;
(§3) 2. The culture solution was sucked out. The plate was washed with 5 mL of PBS once or twice;
(§4) 3. 1.5 mL of 0.25% pancreatin was added to the plate to infiltrate the cells;
4. The pancreatin was sucked out. The culture plate was placed in an incubator. Digestion was carried out for about 2 min at 37° C.;
5. 4 mL of complete culture solution was added to the culture plate to stop the digestion. The cells were carefully scoured with micropipette (1 mL) to give a uniform single cell suspension. The suspension was implanted into a 96-well cell culture plate by 10000 cells/100 μL per well. The culture plate was incubated overnight under 5% CO2 at 37° C. In day 2, 100 μL of culture solution comprising a compound was added in each well. The plate was further incubated for 72 h under 5% CO2 at 37° C.;
(§5) 6. The culture solution was sucked out. 100 uL of TCA fixed cells which were diluted to 10% were added to each well. The plate was kept in a refrigerator for 1 h at 4° C.
7. TCA stationary liquid was sucked out. […]
13. OD values were determined at […]. […]
(In general: The SRB assay estimates cell density from bound dye.)

For data set [2], the system named is DU-145 cells. Kind of data set: DU-145 cell growth inhibition test (MTT assay). The format is cell-based. As to conditions: 72 h. As for the experimental part:
DU-145 Cell Growth Inhibition Test (MTT Assay)
as §1
Culture medium: 90% EMEM+10% FBS (fetal calf serum); Pancreatin (0.25% (w/v) solution was formulated with PBS, 0.53 mM of EDTA was added in the formulation); PBS; 96-well culture plate.
as §2, §3
(§6) 3. PBS was sucked out. 1.5 mL of 0.25% pancreatin was added to the plate to infiltrate the cells for 1 min;
(§7) 4. The culture plate was placed in an incubator. Digestion was carried out for about 1 min at 37° C.;
(§8) 5. 3 mL of complete culture solution was added to the culture plate to stop the digestion. The cells were carefully scoured with micropipette (1 mL) to give a uniform cell suspension. The suspension was implanted into a 96-well cell culture disc by 4000 cells/100 μL per well. The culture plate was incubated overnight under 5% CO2 at 37° C. In day 2, 100 μL of culture solution comprising a compound was added in each well. The plate was further incubated for 72 h under 5% CO2 at 37° C.;
(§9) 6. The culture solution was sucked out;
(§10) 7. 100 μL of serum-free culture solution containing 0.5 mg/mL MTT was added in each well. The plate was incubated for 3 h;
(§11) 8. The culture solution was carefully sucked out;
(§12) 9. 100 μL of DMSO was added in each well and vibrated to dissolve;
(§13) 10. OD values were determined at 490 nM.
(§14) IV. Results and Treatments
(§15) 1. Calculation of Relative Inhibition Ratio The inhibition ratio of a compound on cell growth=(PC−n)/(PC−NC)×100%
(§16) PC: OD values of cells after normal growth in control wells without a compound;
(§17) n: OD values of cells after growth in test wells with a compound;
(§18) NC: Background OD values of blank wells without a compound and cells.
(Tetrazolium dyes change colour on reduction, which living cells bring about.)

The test system of data set [3] is NCI-446 cells. Briefly: NCI-446 cell growth inhibition test (MTT assay). In kind it is cell-based, human. As to conditions: 72 h. On the procedure:
NCI-446 Cell Growth Inhibition Test (MTT Assay)
II. Reagents and Consumable Materials Culture medium: 90% RPMI1640+10% FBS (fetal calf serum); Pancreatin (0.25% (w/v) solution was formulated with PBS, 0.53 mM of EDTA was added in the formulation); PBS; 96-well culture plate.
as §2
2. The culture solution was sucked out. The plate was washed with 5 ml of PBS once or twice;
as §6
(§19) 4. The culture plate was placed in an incubator. Digestion was carried out for about 3 min at 37° C.;
as §8, §9, §10, §11
9. […]
(§20) 10. OD values were determined at 490 nM. […]

Data set [4] concerns MCF-7 cells. Kind of data set: MCF-7 cell growth inhibition test (SRB assay). The format is cell-based, human. To be noted: 73 h. On the procedure:
MCF-7 Cell Growth Inhibition Test (SRB Assay)
as §1
Culture medium: 90% EMEM+10% FBS; Pancreatin (0.25% (w/v) solution was formulated with PBS, 0.53 mM of EDTA was added in the formulation); PBS; 96-well culture plate.
as §2, §3, §4
(§21) 4. The pancreatin was sucked out. The culture plate was placed in an incubator. Digestion was carried out for about 3 min at 37° C.;
5. 4 mL of complete culture solution was added to the culture plate to stop the digestion. The cells were carefully scoured with micropipette (1 mL) to give a uniform single cell suspension. The suspension was implanted into a 96-well cell culture plate by 10000 cells/100 μL per well. The culture plate was incubated overnight under 5% CO2 at 37° C. In day 2, 100 μL of culture solution comprising a compound was added in each well. The plate was further incubated for 73 h under 5% CO2 at 37° C.;
as §5
(§22) 7. TCA stationary liquid was sucked out. Each well was washed with 150 μL of ddH2O five times;
(§23) 8. After the stationary liquid was cleansed, the plate was dried in the air at the room temperature;
(§24) 9. 60 μL of SRB staining solution was added in each well. The well was stained for 15 min at the room temperature;
(§25) 10. The SRB staining solution was sucked out. Each well was washed with 150 μL of 1% glacial acetic acid five times;
(§26) 11. After the SRB staining solution was cleansed, the plate was dried in the air at the room temperature;
(§27) 12. 100 μL of 10 mM Tris was added in each well. The plate was vibrated to dissolve out SRB;
(§28) 13. OD values were determined at 570 nM.
as §14
1. Calculation of Relative Inhibition Ratio The inhibition ratio of a compound on cell growth=(PC−n)/(PC−NC)×100% […]

Data set [5] concerns A431 cells. Briefly: A431 cell growth inhibition test (MTT assay). The format is cell-based, human. To be noted: 72 h. On the procedure: A431 Cell Growth Inhibition Test (MTT Assay)
as §1
Culture medium: 45% DMEM+45% F12+10% FBS (fetal calf serum); Pancreatin (0.25% (w/v) solution was formulated with PBS, 0.53 mM of EDTA was added in the formulation); PBS; 96-well culture plate.
as §2, §3, §6
(§29) 4. The culture plate was placed in an incubator. Digestion was carried out for about 5 min at 37° C.;
(§30) 5. 3 mL of complete culture solution was added to the culture plate to stop the digestion. The cells were carefully scoured with micropipette (1 mL) to give a uniform cell suspension. The suspension was implanted into a 96-well cell culture disc by 2500 cells/100 μL per well. The culture plate was incubated overnight under 5% CO2 at 37° C. In day 2, 100 μL of culture solution comprising a compound was added in each well. The plate was further incubated for 72 h under 5% CO2 at 37° C.;
as §9, §10, §11, §12, §13, §14, §15, §16, §17, §18

Data set [6] concerns B16 cells. Briefly: B16 cell growth inhibition test (MTT assay). In kind it is cell-based, mouse. To be noted: 72 h. On the procedure:
B16 Cell Growth Inhibition Test (MTT Assay)
as §1
(§31) Culture medium: 90% RPMI1640+10% FBS (fetal calf serum); Pancreatin (0.25% (w/v) solution was formulated with PBS, 0.53 mM of EDTA was added in the formulation); PBS; 96-well culture plate.
as §2, §3, §6, §7, §30, §9
7. 100 μl of serum-free culture solution containing 0.5 mg/mL MTT was added in each well. The plate was incubated for 3 h;
as §11, §12, §13, §14, §15, §16, §17, §18

For data set [7], the system named is NCI-H460 cells. Kind of data set: NCI-H460 cell growth inhibition test (MTT assay). In kind it is cell-based, human. As to conditions: NCI-460 cells (NCI-H460 in method), 72 h. As for the experimental part: NCI-H460 Cell Growth Inhibition Test (MTT Assay)
as §1, §31, §2, §3, §6, §19
(§32) 5. 3 mL of complete culture solution was added to the culture plate to stop the digestion. The cells were carefully scoured with micropipette (1 mL) to give a uniform cell suspension. The suspension was implanted into a 96-well cell culture disc by 2000 cells/100 μL per well. The culture plate was incubated overnight under 5% CO2 at 37° C. In day 2, 100 μL of culture solution comprising a compound was added in each well. The plate was further incubated for 72 h under 5% CO2 at 37° C.;
as §9, §10, §11
9. […]
as §20

Data set [8] deals with A375 cells. Briefly: A375 cell growth inhibition test (MTT assay). As to conditions: 72 h. In kind it is cell-based, human. On the procedure: A375 Cell Growth Inhibition Test (MTT Assay)
as §1
Culture medium: 90% DMEM+10% FBS (fetal calf serum); Pancreatin (0.25% (w/v) solution was formulated with PBS, 0.53 mM of EDTA was added in the formulation); PBS; 96-well culture plate.
as §2, §3, §6, §29
5. 3 mL of complete culture solution was added to the culture plate to stop the digestion. The cells were carefully scoured with micropipette (1 ml) to give a uniform cell suspension. The suspension was implanted into a 96-well cell culture disc by 3000 cells/100 μL per well. The culture plate was incubated overnight under 5% CO2 at 37° C. In day 2, 100 μL of culture solution comprising a compound was added in each well. The plate was further incubated for 72 h under 5% CO2 at 37° C.;
as §9, §10, §11, §12, §13, §14, §15, §16, §17, §18

Data set [9] has as its system Hep3B cells. Kind of data set: Hep3B cell growth inhibition test (SRB assay). In kind it is cell-based. To be noted: 72 h. On the procedure:
Hep3B Cell Growth Inhibition Test (SRB Assay)
as §1
Culture medium: 90% RPMI-1640+10% FBS; Pancreatin (0.25% (w/v) solution was formulated with PBS, 0.53 mM of EDTA was added in the formulation); PBS; 96-well culture plate.
as §2, §3, §4, §21
5. 4 mL of complete culture solution was added to the culture plate to stop the digestion. The cells were carefully scoured with micropipette (1 mL) to give a uniform single cell suspension. The suspension was implanted into a 96-well cell culture plate by 5000 cells/100 μL per well. The culture plate was incubated overnight under 5% CO2 at 37° C. In day 2, 100 μL of culture solution comprising a compound was added in each well. The plate was further incubated for 72 h under 5% CO2 at 37° C.;
as §5, §22, §23, §24, §25, §26, §27, §28, §14
1. Calculation of Relative Inhibition Ratio The inhibition ratio of the compound on cell growth=(PC−n)/(PC−NC)×100% […]

For data set [10], the system named is 786-O cells. Briefly: 786-O cell growth inhibition test (MTT assay). In kind it is cell-based, human. As to conditions: 72 h. On the procedure: 786-O Cell Growth Inhibition Test (MTT Assay)
as §1, §31, §2, §3, §6, §7, §32, §9, §10, §11, §12, §13, §14, §15, §16, §17, §18

Data set [11] in a line: Solubility of the compound in water. The format is physicochemical.
Data set [12] is described as follows: Storage stability detected by HPLC. The format is physicochemical. As to conditions: sealed and stored for 9 months under refrigeration conditions.

Usually IC50 stands for the concentration at which inhibition is half-maximal. In the case of `COCCOCCOCCOCCOCCOCCOCCOCCOCCNC(=O)CCC(=O)OCC(=O)C1(O)Cc2c(O)c3c(c(O)c2C(OC2CC(n4cccc4)C(O)C(C)O2)C1)C(=O)c1c(OC)cccc1C3=O` (stereo not shown) [Example 98], in data set [1], 15 nM corresponded to half-maximal inhibition (IC50). That is a double-digit nanomolar value.

Turning to `COc1cccc2c1C(=O)c1c(O)c3c(c(O)c1C2=O)CC(O)(C(=O)COC(=O)CCC(=O)NCCN1CCOCC1)CC3O[C@H]1C[C@H](n2cccc2)[C@H](O)[C@H](C)O1` (stereo partly drawn) [Example 89, 10-((3′-(pyrrol-1-yl)-2′,3′,6′-trideoxy-alphal-l-lyxo-hexylpyranyl)oxy)-7,8,9,10-tetrahydro-6,8,11-trihydroxy-13-oxo-14-(4-((2-(morpholin-1-yl)ethyl)amino)-4-oxo-butyrato)-1-methoxy-5,12-naphthalenedione acetate], the IC50 was 56 nM in data set [2]; 140 nM in data set [3]; 333 nM in [4]; 46 nM in data set [5]; 3 nM in data set [6]; 2.5 nM in data set [7]. In data set [8], the IC50 was 48 nM.

On to `COc1cccc2c1C(=O)c1c(O)c3c(c(O)c1C2=O)CC(O)(C(=O)COC(=O)CCC(=O)NCCOCCOCCOCCOCCOCCOCCOCCO)CC3OC1CC(n2cccc2)C(O)C(C)O1` (stereo not shown) [Example 90], for which the IC50 in [9] turned out to be 29 nM; in [10] it was 90 nM; in [2], 30 nM.

For `COc1cccc2c1C(=O)c1c(O)c3c(c(O)c1C2=O)CC(O)(C(=O)COC(=O)CCC(=O)NCCN1CCOCC1)CC3O[C@H]1C[C@H](n2cccc2)[C@H](O)[C@H](C)O1.O=P(O)(O)O` (stereo partly drawn) [Example 96, 10-((3′-(pyrrol-1-yl)-2′,3′,6′-trideoxy-alphal-l-lyxo-hexylpyranyl)oxy)-7,8,9,10-tetrahydro-6,8,11-trihydroxy-13-oxo-14-(4-((2-(morpholin-1-yl)ethyl)amino)-4-oxo-butyrato)-1-methoxy-5,12-naphthalenedione phosphate], the “solubility of the compound in water” value in data set [11] is reported as “more than 26 mg/ml”. Further, the “stability on storage (degraded product by HPLC)” value in data set [12] is reported as “No obvious degraded product was observed”.
